Measured values published in US20150344466A1 (SUMITOMO CHEMICAL COMPANY, LIMITED, priority 2013, published 2015).

System: Culex pipiens pallens
Experiment: Knockdown spray test on adult Culex pipiens pallens (Test Example 4)
Format: in vivo
Settings: topical, 0.25 h, active ingredient 0.1% w/v, 0.5 ml sprayed, within 15 minutes, read-out: knockdown rate of the test insects within 15 minutes
Procedure: Ten adult Culex pipiens pallens were released in a polyethylene cup (bottom diameter: 10.6 cm), and the cup was covered with a 16-mesh nylon gauze. The polyethylene cup was placed on the bottom of a test chamber (bottom: 46 cm×46 cm, height: 70 cm). From a height of 30 cm above the upper surface of the polyethylene cup, 0.5 ml of the test drug solution was sprayed using a spray gun (a spraying pressure of 0.4 kg/cm^2). Immediately after spraying, the cup was taken out from the test chamber, and after 2 minutes, 5 minutes and 15 minutes, the number of knocked-down insects was counted to obtain a knockdown rate. The knockdown rate was calculated by the following equation.
Knockdown Rate (%)=(Number of Knocked-down Insects/Number of Tested Insects)×100

## O=C(NCC1COCO1)c1cc(COCc2ccccc2)on1 (centres unmarked) [(35), N-[4-(1,3-dioxolyl)methyl]-5-benzyloxymethylisoxazole-3-carboxamide]
  pest or weed control at 0.1 % strength: ≥ 80%

## O=C(NC1CSC1)c1cc(COCc2ccccc2)on1 [(40), N-(thietan-3-yl)-5-benzyloxymethylisoxazole-3-carboxamide]
  pest or weed control at 0.1 % strength: ≥ 80%

## O=C(NCC1CCOC1)c1ncc(COc2ccccc2)s1 (centres unmarked) [(47), N-(tetrahydrofuran-3-ylmethyl)-5-phenoxymethythiazole-2-carboxamide]
  pest or weed control at 0.1 % strength: ≥ 80%

## O=C(NCC1CCOC1)c1ncc(COCc2ccccc2)s1 (centres unmarked) [(48), N-(tetrahydrofuran-3-ylmethyl)-5-benzyloxymethythiazole-2-carboxamide]
  pest or weed control at 0.1 % strength: ≥ 80%

## O=C(NCC1CCOC1)c1cc(COCc2ccsc2)on1 (centres unmarked) [(107), N-(tetrahydrofuran-3-ylmethyl)-5-(thiophen-3-ylmethoxymethyl)isoxazole-3-carboxamide]
  pest or weed control at 0.1 % strength: ≥ 80%

## O=C(NCC1CCOCC1)c1cc(COCc2ccsc2)on1 [(108), N-(tetrahydropyran-4-ylmethyl)-5-(thiophen-3-ylmethoxymethyl)isoxazole-3-carboxamide]
  pest or weed control at 0.1 % strength: ≥ 80%

## O=C(NCC1CCOC1)c1cc(COCc2ccc(Oc3ccccc3)cc2)on1 (centres unmarked) [(117), N-(tetrahydrofuran-3-ylmethyl)-5-(4-phenoxybenzyloxymethyl) isoxazole-3-carboxamide]
  pest or weed control at 0.1 % strength: ≥ 80%

## Cc1c(COCc2cc(C(=O)NCC3CCOC3)no2)cccc1-c1ccccc1 (centres unmarked) [(123), N-(tetrahydrofuran-3-ylmethyl)-5-(2-methyl-3-phenylbenzyloxymethyl)isoxazole-3-carboxamide]
  pest or weed control at 0.1 % strength: ≥ 80%

## CC(OCc1cc(C(=O)NCC2CCOC2)no1)c1ccccc1 (centres unmarked) [(125), N-(tetrahydrofuran-3-ylmethyl)-5-[(1-phenylethyl)oxymethyl]isoxazole-3-carboxamide]
  pest or weed control at 0.1 % strength: ≥ 80%

## O=C(NCC1CCOC1)c1cc(COCCCCc2ccccc2)on1 (centres unmarked) [(135), N-(tetrahydrofuran-3-ylmethyl)-5-(4-phenylbutoxymethyl)isoxazole-3-carboxylic acid-3-carboxamide]
  pest or weed control at 0.1 % strength: ≥ 80%

## O=C(NCC1CCOCC1)c1cc(COCCCCc2ccccc2)on1 [(136), N-(tetrahydropyran-4-ylmethyl)-5-(4-phenylbutoxymethyl)isoxazole-3-carboxamide]
  pest or weed control at 0.1 % strength: ≥ 80%

## O=C(NCC1CCOC1)c1cc(COCCCCCc2ccccc2)on1 (centres unmarked) [(137), N-(tetrahydrofuran-3-ylmethyl)-5-(5-phenylpentyloxymethyl)isoxazole-3-carboxylic acid-3-carboxamide]
  pest or weed control at 0.1 % strength: ≥ 80%

## O=C(NCC1CCOCC1)c1cc(COCCCCCc2ccccc2)on1 [(138), N-(tetrahydropyran-4-ylmethyl)-5-(5-phenylpentyloymethyl)isoxazole-3-carboxamide]
  pest or weed control at 0.1 % strength: ≥ 80%

## O=C(NCC1CCOC1)c1cc(CCCOc2ccccc2)on1 (centres unmarked) [(145), N-(tetrahydrofuran-3-ylmethyl)-5-(3-phenoxypropyl)isoxazole-3-carboxamide]
  pest or weed control at 0.1 % strength: ≥ 80%

## O=C(NCC1CCOC1)c1cc(CCCCCOc2ccccc2)on1 (centres unmarked) [(147), N1-(tetrahydrofuran-3-ylmethyl)-5-(5-phenoxypentyl)isoxazole-3-carboxamide]
  pest or weed control at 0.1 % strength: ≥ 80%

## O=C(NCC1CCOC1)c1cc(CCCCCCOc2ccccc2)on1 (centres unmarked) [(148), N-(tetrahydrofuran-3-ylmethyl)-5-(6-phenoxyhexyl)isoxazole-3-carboxamide]
  pest or weed control at 0.1 % strength: ≥ 80%

## O=C(NCC1CCOC1)c1cc(Cc2cc3ccccc3s2)on1 (centres unmarked) [(161), N-(tetrahydrofuran-3-ylmethyl)-5-(benzo[b]thiophen-2-ylmethy)isoxazole-3-carboxamide]
  pest or weed control at 0.1 % strength: ≥ 80%

## O=C(NCC1CCOC1)c1cc(Cc2ccc(Oc3ccccc3)cc2)on1 (centres unmarked) [(162), N-(tetrahydrofuran-3-ylmethyl)-5-(4-phenoxybenzyl)isoxazole-3-carboxamide]
  pest or weed control at 0.1 % strength: ≥ 80%

## O=C(NCC1CCOC1)c1cc(Cc2cccc(Oc3ccccc3)c2)on1 (centres unmarked) [(163), N-(tetrahydrofuran-3-ylmethyl)-5-(3-phenoxybenzyl)isoxazole-3-carboxamide]
  pest or weed control at 0.1 % strength: ≥ 80%

## O=C(NCC1CCOCC1)c1cc(COc2cccc(Cl)c2)on1 [(179), N-(tetrahydropyran-4-ylmethyl)-5-(3-chlorophenoxymethyl)isoxazole-3-carboxamide]
  pest or weed control at 0.1 % strength: ≥ 80%

## O=C(NCC1CCOCC1)c1cc(COc2ccc(F)cc2)on1 [(185)]
  pest or weed control at 0.1 % strength: ≥ 80%

## O=C(NCC1CCOCC1)c1cc(COc2ccc(SC(F)(F)F)cc2)on1 [(193), N-(tetrahydropyran-4-ylmethyl)-5-(4-trifluoromethylthiophenoxymethyl)isoxazole-3-carboxamide]
  pest or weed control at 0.1 % strength: ≥ 80%

## O=C(NCC1CCOC1)c1cc(COc2cccc(SC(F)(F)F)c2)on1 (centres unmarked) [(202), N-(tetrahydrofuran-3-ylmethyl)-5-(3-trifluoromethylthiophenoxymethyl)isoxazole-3-carboxamide]
  pest or weed control at 0.1 % strength: ≥ 80%

## O=C(NCC1CCOCC1)c1cc(COc2cccc(SC(F)(F)F)c2)on1 [(203), N-(tetrahydropyran-4-ylmethyl)-5-(3-trifluoromethylthiophenoxymethyl)isoxazole-3-carboxamide]
  pest or weed control at 0.1 % strength: ≥ 80%

## O=C(NCC1CCOC1)c1noc(COCc2ccc3ccccc3c2)c1CO (centres unmarked) [(209), N-(tetrahydrofuran-3-ylmethyl)-4-hydroxymethyl-5-(2-naphthylmethoxymethyl)isoxazole-3-carboxamide]
  pest or weed control at 0.1 % strength: ≥ 80%

## COc1ccccc1COCc1cc(C(=O)NCC2CCOC2)no1 (centres unmarked) [(227), N-(tetrahydrofuran-3-ylmethyl)-5-(2-methoxybenzyloxymethyl) isoxazole-3-carboxamide]
  pest or weed control at 0.1 % strength: ≥ 80%

## O=C(NCC1COCO1)c1cc(CCCc2ccc3ccccc3c2)on1 (centres unmarked) [(229), N-(1,3-dioxolan-4-ylmethyl)-5-[3-(2-naphthyl)propyl]isoxazole-3-carboxamide]
  pest or weed control at 0.1 % strength: ≥ 80%

## O=C(NCC1CCOC1)c1cc(CCCc2ccc3c(c2)OC(F)(F)O3)on1 (centres unmarked) [(231), N-(tetrahydrofuran-3-ylmethyl)-5-[5-(2,2-difluoro-1,3-benzodioxolanyl)propyl]isoxazole-3-carboxamide]
  pest or weed control at 0.1 % strength: ≥ 80%

## O=C(NCC1COCCO1)c1cc(CCCc2ccc3c(c2)OC(F)(F)O3)on1 (centres unmarked) [(232), N-(1,4-dioxan-2-ylmethyl)-5-[3-(5-(2,2-difluoro-1,3-benzodioxolanyl))propyl]isoxazole-3-carboxamide]
  pest or weed control at 0.1 % strength: ≥ 80%

## O=C(NCC1COCCO1)c1cc(COCc2ccc3ccccc3c2)on1 (centres unmarked) [(233), N-(1,4-dioxan-2-ylmethyl)-5-(2-naphthylmethoxymethyl)isoxazole-3-carboxamide]
  pest or weed control at 0.1 % strength: ≥ 80%

## O=C(NCC1CCOC1)c1cc(COCc2ccc3c(c2)OC(F)(F)O3)on1 (centres unmarked) [(236), N-(tetrahydrofuran-3-ylmethyl)-5-[5-(2,2-difluoro-1,3-benzodioxolanyl)methoxymethyl]isoxazole-3-carboxamide]
  pest or weed control at 0.1 % strength: ≥ 80%

## O=C(NCC1CCOCC1)c1cc(COCc2ccc3c(c2)OC(F)(F)O3)on1 [(237), N-(tetrahydropyran-4-ylmethyl)-5-[5-(2,2-difluoro-1,3-benzodioxolanyl)methoxymethyl]isoxazole-3-carboxamide]
  pest or weed control at 0.1 % strength: ≥ 80%

## CC1(CNC(=O)c2cc(COCc3ccc4c(c3)OC(F)(F)O4)on2)COC1 [(238), N-(3-methyloxetan-3-ylmethyl)-5-[5-(2,2-difluoro-1,3-benzodioxolanyl)methoxymethyl]isoxazole-3-carboxamide]
  pest or weed control at 0.1 % strength: ≥ 80%

## O=C(NCC1CCOC1)c1cc(COCc2ccc(-c3ccccc3)s2)on1 (centres unmarked) [(241), N-(tetrahydrofuran-3-ylmethyl)-5-(5-phenyl-2-thienylmethoxymethyl)isoxazole-3-carboxamide]
  pest or weed control at 0.1 % strength: ≥ 80%

## O=C(NCC1CCOC1)c1cc(CCCc2ccccc2F)on1 (centres unmarked) [(245), N-(tetrahydrofuran-3-ylmethyl)-5-[3-(2-fluorophenyl)propyl]isoxazole-3-carboxamide]
  pest or weed control at 0.1 % strength: ≥ 80%

## COc1ccc2cc(CCCc3cc(C(=O)NCC4CCOC4)no3)ccc2c1 (centres unmarked) [(247), N-(tetrahydrofuran-3-ylmethyl)-5-[3-(6-methoxy-2-naphthyl)propyl]isoxazole-3-carboxamide]
  pest or weed control at 0.1 % strength: ≥ 80%

## O=C(NCC1CCOC1)c1cc(CCCBr)on1 (centres unmarked) [(248), N-(tetrahydrofuran-3-ylmethyl)-5-(3-bromopropyl)isoxazole-3-carboxamide]
  pest or weed control at 0.1 % strength: ≥ 80%

## C#Cc1c(C(=O)NCC2CCOC2)noc1COCc1ccccc1F (centres unmarked) [(249), N-(tetrahydrofuran-3-ylmethyl)-5-(2-fluorobenzyloxymethyl)-4-ethynylisoxazole-3-carboxamide]
  pest or weed control at 0.1 % strength: ≥ 80%

## C#Cc1c(C(=O)NCC2CCOC2)noc1COCc1ccc2ccccc2c1 (centres unmarked) [(250), N-(tetrahydrofuran-3-ylmethyl)-5-(2-naphthylmethoxymethyl)-4-ethynylisoxazole-3-carboxamide]
  pest or weed control at 0.1 % strength: ≥ 80%

## O=C(NCC1CCOC1)c1cc(CCCc2cccc(F)c2)on1 (centres unmarked) [(251), N-(tetrahydrofuran-3-ylmethyl)-5-[3-(3-fluorophenyl)propyl]isoxazole-3-carboxamide]
  pest or weed control at 0.1 % strength: ≥ 80%

## O=C(NCC1CCOC1)c1cc(CSCc2ccccc2)on1 (centres unmarked) [(254), N-(tetrahydrofuran-3-ylmethyl)-5-benzylthiomethylisoxazole-3-carboxamide]
  pest or weed control at 0.1 % strength: ≥ 80%
